Square brackets hold non-standard residues; d marks the D form. Peptide text beside a SMILES is read from it. ξ: configuration not given here. dPip = O=C(O)[C@H]1CCCCN1; dThz = O=C(O)[C@H]1CSCN1; ξAze = O=C(O)C1CCN1
Legend:
[1] = Index of Bioavailability (plasma thrombin time AUC, oral vs i.v.); assay type: in vivo; conditions: rats; dose-adjusted AUC of plasma TT time course, p.o. vs i.v. bolus
Description: Assays are done in duplicate and averaged.
Each sample population represents alternating sequential time points.

[2] = target: human thrombin (Homo sapiens, UniProt P00734); assay: Human thrombin inhibition (amidase activity, chromogenic substrate; Kass); conditions: purified human thrombin, mean over a range of concentrations
Description: Standard curves are constructed by plotting free thrombin concentration against hydrolysis rate. […] The amount of free inhibitor in each assay is calculated by subtracting the number of moles of bound thrombin from the number of moles of added inhibitor (test compound).
Kass is calculated for a range of concentrations of test compounds and the mean value reported in units of liter per mole.

[3] = test system: thrombin; conditions: Bajusz et al., J. Med. Chem., 33, 1729-1735 (1990); cited from earlier work
[4] = early clinical studies, Simoons et al.; cited from earlier work
[5] = Template Bleeding Time assay (gingival); assay type: in vivo, dog; conditions: 0.25, 0.50 and 1.0 mg/kg.hr; over a 240 minute time
Description: Whole blood cell counts, hemoglobin, and hematocrit values are determined on a 40-μl sample of citrated (3.8 percent) blood (1 part citrate:9 parts blood) with a hematology analyzer (Cell-Dyn 900, Sequoia-Turner. Mount View, Calif., U.S.A.). Gingival template bleeding times are determined with a Simplate II bleeding time device (Organon Teknika Durham, N.C., U.S.A.). The device is used to make 2 horizontal incisions in the gingiva of either the upper or lower left jaw of the dog. Each incision is 3 mm wide×2 mm deep. The incisions are made, and a stopwatch is used to determine how long bleeding occurs. A cotton swab is used to soak up the blood as it oozes from the incision. Template bleeding time is the time from incision to stoppage of bleeding. Bleeding times are taken just before administration of test compound (0 min), 60 min into infusion, at conclusion of administration of the test compound (120 min), and at the end of the experiment.
All data are analyzed by one-way analysis of variance (ANOVA) followed by Student-Neuman-Kuels post hoc t test to determine the level of significance. Repeated-measures ANOVA are used to determine significant differences between time points during the experiments. Values are determined to be statistically different at least at the level of p<0.05. All values are mean ±SEM. […]

[6] = Pharmacokinetic model in dogs, single oral dose; assay type: in vivo, dogs (Beagles); conditions: single 2 mg/kg oral dose
Description: Male dogs (Beagles; 18 months-2 years; 12-13 kg, Marshall Farms, North Rose, N.Y. 14516) are fasted overnight and fed Purina certified Prescription Diet (Purina Mills, St. Louis, Miss.) 240 minutes after dosing. Water is available ad libitum. The room temperature is maintained between 66°-74° F.; 45-50 percent relative humidity; and lighted from 0600-1800 hours.
Test compound is formulated immediately prior to dosing by dissolving in sterile 0.9 percent saline to a 5 mg/ml preparation. Dogs are given a single 2 mg/kg dose of test compound by oral garage. Blood samples (4.5 ml) are taken from the cephalic vein at 0.25, 0.5, 0.75, 1,2,3,4 and 6 hours after dosing. Samples are collected in citrated Vacutainer tubes and kept on ice prior to reduction to plasma by centrifugation. Plasma samples are derivatized with dinitrophenylhydrazine and analyzed by HPLC (Zorbax SB-C8 column) eluting with methanol/500 mM sodium acetate adjusted to pH7 with phosphoric acid (60:40, v/v). Plasma concentration of test compound is recorded and used to calculate the pharmacokinetic parameters: elimination rate constant, Ke; total clearance, Clt; volume of distribution, VD; time of maximum plasma test compound concentration, Tmax; maximum concentration of test compound of Tmax, Cmax; plasma half-life, t0.5; and area under the curve, A.U.C.; fraction of test compound absorbed, F.

Row | Molecule | Percent Relative Activity (Index of Bioavailability) [1] [%] | Kass × 10^6 (l/mole) [2] | further results
1 | Cl.Cl.N=C(N)NCCC[C@@H](C=O)NC(=O)[C@@H]1CCCN1C(=O)C1NCCCC2CCCCC21 (mixture of isomers) [Example 8, DL-cis-3-aza-bicyclo[5.4.0]undecanyl-2-carbonyl-L-prolinyl-L-arginine aldehyde dihydrochloride] | 43 | 595 × 10^6 l/mole | 
2 | Cl.Cl.Cl.N=C(N)NCCC[C@@H](C=O)NC(=O)[C@@H]1CCCN1C(=O)[C@H]1C[C@@H](Oc2ccccc2)CN1.O (relative stereo) [Example 12, D-Cis-(4-phenoxy) Prolinyl-L-Prolinyl-L-Arginine Aldehyde Trihydrochloride Monohydrate] | 16 | 25 × 10^6 l/mole | 
3 | CC(C)(C)OC(=O)N[C@H](Cc1ccccc1)C(=O)N1CCC[C@H]1C(=O)N[C@H](C=O)CCCNC(=N)N [Boc-D-Phe-Pro-Arg-H] |  |  | direct inhibition of thrombin [3]: potent direct inhibition of thrombin
4 | CN[C@H](Cc1ccccc1)C(=O)N1CCC[C@H]1C(=O)N[C@H](C=O)CCCNC(=N)N.O=S(=O)(O)O [D-MePhe-Pro-Arg-H sulfate] |  |  | anticoagulant in man [4]: is an anticoagulant in man
5 | CN[C@H](Cc1ccccc1)C(=O)N1CCC[C@H]1C(=O)N[C@H](C=O)CCCNC(=N)N [D-MePhe-Pro-Arg-H] |  |  | direct inhibition of thrombin [3]: potent direct inhibition of thrombin
6 | N=C(N)NCCC[C@@H](C=O)NC(=O)[C@@H]1CCCN1C(=O)[C@H](N)Cc1ccccc1 [D-Phe-Pro-Arg-H] |  |  | direct inhibition of thrombin [3]: potent direct inhibition of thrombin
7 | Cl.Cl.N=C(N)NCCC[C@@H](C=O)NC(=O)[C@@H]1CCCN1C(=O)[C@H]1CCCCN1 [Example 1, D-Homoprolinyl-L-Prolinyl-L-Arginine Aldehyde Dihydrochloride] (H-[dPip]-Pro-Arg-aldehyde) | 38 | 46 × 10^6 l/mole | effect on template bleeding time [5]: no significant effect on template bleeding time; A.U.C. o-infinity [6]: 4651 ng·h/mL; Cmax [6]: 1676 ng/mL; Ke (elimination rate constant) [6]: 0.0104 min⁻¹; Tmax [6]: 1 to 2 h; VD/F (volume of distribution) [6]: 0.729 L/kg; t0.5 (plasma half-life) [6]: 1.12 h
8 | Cl.Cl.N=C(N)NCCC[C@@H](C=O)NC(=O)C1CCN1C(=O)[C@H]1CCCCN1 (stereo partly drawn) [Example 3, D-Homoprolinyl-L-Azetidinyl-L-Arginine Aldehyde Dihydrochloride] (H-[dPip]-[ξAze]-Arg-aldehyde) | 32 | 45 × 10^6 l/mole | 
9 | Cl.Cl.N=C(N)NCCC[C@@H](C=O)NC(=O)[C@@H]1CCCN1C(=O)[C@H]1CSCN1 [Example 4, D-Thiazolidinyl-4-Carbonyl-L-Prolinyl-L-Arginine Aldehyde Dihydrochloride] (H-[dThz]-Pro-Arg-aldehyde) | 16 | 5 × 10^6 l/mole | 
10 | CC(C)C1N[C@@H](C(=O)N2CCC[C@H]2C(=O)N[C@H](C=O)CCCNC(=N)N)C(C)(C)S1.Cl.Cl (stereo partly drawn) [Example 5, D-2-Isopropyl-5,5-Dimethylthiazolidinyl-4-Carbonyl-L-Prolinyl-L-Arginine Aldehyde Dihydrochloride] |  | 4 × 10^6 l/mole | 
11 | Cl.Cl.Cl.N=C(N)NCCC[C@@H](C=O)NC(=O)[C@@H]1CCCN1C(=O)[C@H]1C[C@H](Oc2ccc3ccccc3c2)CN1.O [Example 6, trans-4-(2-Naphthyloxy)-D-Prolinyl-L-Prolinyl-L-Arginine Aldehyde Trihydrochloride Monohydrate] |  | 21 × 10^6 l/mole | 
12 | Cl.Cl.N=C(N)NCCC[C@@H](C=O)NC(=O)[C@@H]1CCCN1C(=O)C1CNCCN1 (stereo partly drawn) [Example 9, D,L-Piperazin-2-oyl-L-Prolinyl-L-Arginine Aldehyde Dihydrochloride] | 19 | 121 × 10^6 l/mole | 
13 | Cl.Cl.N=C(N)NCCC[C@@H](C=O)NC(=O)[C@@H]1CCCN1C(=O)C1NCCS1 (stereo partly drawn) [Example 10, D,L-Thiazolidinyl-2-carbonyl-L-prolinyl-L-arginine aldehyde dihydrochloride] | 5 | 27 × 10^6 l/mole | 
14 | Cl.Cl.Cl.N=C(N)NCCC[C@@H](C=O)NC(=O)[C@@H]1CCCN1C(=O)[C@H]1C[C@H](Sc2ccccc2)CN1.O.O.O [Example 14, trans-4-phenylthio-D-prolinyl-L-prolinyl-L-arginine aldehyde trihydrochloride trihydrate] |  | 37 × 10^6 l/mole | 
15 | D-Prolinyl-L-Prolinyl-L-Arginine Aldehyde Dihydrochloride [Example 2] | 36 | 12 × 10^6 l/mole | 
